Assays:
[1] = molecular target: T1, Rat Liver 3-hydroxy-3-methylglutarylcoenzyme A Reductase (Rattus norvegicus, UniProt P51639); experiment: Assay of HMGCoA reductase (rat liver microsomes), in vitro; format: biochemical; details: 20 min, 37° C., DMSO control 652, none 1254
T1 construct: rat liver microsome (75 μg protein); from tissue; host or cells: rat liver microsomes
T1 sequence (P51639 1-887): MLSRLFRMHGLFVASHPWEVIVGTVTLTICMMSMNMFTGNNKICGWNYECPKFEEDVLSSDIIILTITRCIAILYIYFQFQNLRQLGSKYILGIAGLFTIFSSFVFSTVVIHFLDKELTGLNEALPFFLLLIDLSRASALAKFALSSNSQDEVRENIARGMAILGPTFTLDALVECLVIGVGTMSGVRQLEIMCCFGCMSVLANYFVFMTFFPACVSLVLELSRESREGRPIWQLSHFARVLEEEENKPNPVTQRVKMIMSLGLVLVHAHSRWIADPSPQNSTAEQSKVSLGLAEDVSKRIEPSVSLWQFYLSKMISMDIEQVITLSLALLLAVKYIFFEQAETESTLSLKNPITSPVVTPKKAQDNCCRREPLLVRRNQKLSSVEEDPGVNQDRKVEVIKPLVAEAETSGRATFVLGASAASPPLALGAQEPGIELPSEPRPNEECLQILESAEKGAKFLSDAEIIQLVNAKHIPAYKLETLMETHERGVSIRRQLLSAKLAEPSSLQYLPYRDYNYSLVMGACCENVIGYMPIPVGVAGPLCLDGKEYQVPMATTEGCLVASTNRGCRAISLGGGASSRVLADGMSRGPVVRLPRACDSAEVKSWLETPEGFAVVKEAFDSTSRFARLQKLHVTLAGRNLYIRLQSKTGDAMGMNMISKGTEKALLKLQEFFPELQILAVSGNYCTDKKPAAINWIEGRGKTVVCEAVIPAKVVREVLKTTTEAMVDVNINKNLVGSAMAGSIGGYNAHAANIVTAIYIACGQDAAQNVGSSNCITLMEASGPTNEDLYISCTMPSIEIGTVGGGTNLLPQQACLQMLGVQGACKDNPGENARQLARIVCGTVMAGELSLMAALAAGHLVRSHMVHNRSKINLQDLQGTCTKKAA
Description: Ethylcompactin and mevinolin were dissolved in DMSO. Aliquots (10 μl) of each were incubated with 50 μl of 50 mM Pot. phosphate pH 7.4, 70 mM KCl, 30 mM EDTA, 10 mM DTT for 30 min at 37° C. to delactonize the compounds. Control incubations were done with 10 μL DMSO.
Assay of HMGCoA reductase was carried out as described by George and Ramasarma, [George R., Ramasarma, T., Biochem. J. (1977) 162:493-499]. At the end of 30 min, incubation for […], rat liver microsome (75 μg protein) were added to each tube along with glucose-6-phosphate (577 μM) glucose-6-phosphate dehydrogenase (0.05 unit/assay) and MADPH ([…]) and incubated for an additional 10 min at 37° C.
HMGCoA reductase reaction was initiated by the additon of 3-^14 C-HMGCoA ([…], final) and carried out for 20 min at 37° C. in a total volume of 100 μl. The reaction was terminated by the addition of 5N HCl (25 μl) containing known amounts of ^3 -H-Mevalonolactone as internal standard and non-radioactive mevalonolactone (0.6 mg/assay) as carrier. Mevalonic acid formed in the assay was allowed to lactonize by incubating the mixture for 30 min at 37° C. The precipitated protein was removed by centrifugation in a microfuge. An aliquot of the supernatant (40 μl) was applied on silica gel G (0.25 mm thickness) plates and the chromatogram developed with Acetone:Benzene (3:2). The spot corresponding to the mevalonolactone (Rf 0.5) was scraped off and the radioactivity estimated by liquid scintillation counting. Mevalonic acid formed was calcualted from the recovery of internal standard. Microsomal protein was estimated by the method of Lowry [J. Biol. Chem. (1951) 193:265-275 ] after precipitation according to Bensadoun and Weinstein [Anal. Biochem. (1976) 70:241-250]. The specific activity of HMGCoA reductase is expressed as p moles of mevalonic acid formed per minute per mg of microsomal protein.

[2] = administered to human beings; cited from earlier work
[3] = based on existing biological data; cited from earlier work
[4] = 100 nM in assay (in 10 μl DMSO)

Structure (SMILES) | HMGCoA Reductase Activity ([1]; 1 nM in assay (in 10 μl DMSO)) | HMGCoA Reductase Activity [1, 4] | HMGCoA Reductase Activity ([1]; 1 μM in assay (in 10 μl DMSO)) | HMGCoA Reductase Activity ([1]; 10 μM in assay (in 10 μl DMSO)) | concentration in the blood of LDL cholesterol [2] | activity in lowering LDL cholesterol levels as compared to Compactin [3]
CC[C@H]1C=C2C=C[C@H](C)[C@H](CC[C@@H]3C[C@@H](O)CC(=O)O3)[C@H]2[C@@H](OC(=O)[C@@H](C)CC)C1 [Ethyl Compactin, (+)-3-Ethylcompactin] | 730 pmol Mevalonate formed/min/mg | 361 pmol Mevalonate formed/min/mg | 182 pmol Mevalonate formed/min/mg | 20 pmol Mevalonate formed/min/mg |  | 
CC[C@H](C)C(=O)O[C@H]1CCC=C2C=C[C@H](C)[C@H](CC[C@@H]3C[C@@H](O)CC(=O)O3)[C@H]21 [Compactin, (+)-Compactin] |  |  |  |  | reduced | 
CC[C@H](C)C(=O)O[C@H]1C[C@@H](C)C=C2C=C[C@H](C)[C@H](CC[C@@H]3C[C@@H](O)CC(=O)O3)[C@H]21 [Mevinolin, (+)-Mevinolin] | 609 pmol Mevalonate formed/min/mg | 303 pmol Mevalonate formed/min/mg | 113 pmol Mevalonate formed/min/mg | 52 pmol Mevalonate formed/min/mg | reduced | several times more active

Reference: US5072002A, “Synthesis of cholesterol-lowering agents” (The Governors of the University of Alberta, priority 1989, dated 1991)
